Assay results published in article PMC7913237, “Small-Molecule Anti-HIV-1 Agents Based on HIV-1 Capsid Proteins” (Biomolecules, 2021).
Read-outs that look alike come from different tables or passages of the source.

Tests used:
Format in all cases: cell-based
[1] = Cytotoxicity: reduction of the viability of MT-4 cells, MTT assay; conditions: human, MT-4 cells, 50% reduction of the viability of MT-4 cells
Procedure: (§1) For virus preparation, 293T/17 cells (Invitrogen), which are maintained in Dulbecco’s modified Eagle medium (DMEM) containing 10% FBS, in a T-75 flask were transfected with 10 μg of the pNL4-3 construct by the calcium phosphate method. The supernatant was collected 48 h after transfection, passed through a 0.45 μm filter, and stored at −80 °C as a stock virus. Inhibitory activities of test compounds against X4-HIV-1 (NL4-3 strain)-induced cytopathogenicity in MT-4 cells, which are maintained in RPMI-1640 containing 10% FBS, were assessed by the MTT assay. Various concentrations of test compound solutions were added to HIV-1-infected MT-4 cells at multiplicity of infection (MOI) of 0.001, and placed in wells of a 96-well microplate. The test compounds and the reference compounds such as AZT and AMD3100 were diluted by two-fold and five-fold, respectively. After 5 days’ incubation at 37 °C in a CO2 incubator, the number of viable cells was determined by the MTT assay. Cytotoxicities of the test compounds were determined based on reduction of the viability of MT-4 cells by the MTT assay. The p24 antigen content in the culture supernatant was measured using HIV-1 p24 antigen enzyme-linked immunosorbent assay (ELISA) kit according to manufacturer’s instructions (Zeptometrix, Buffalo, NY, USA). A reverse transcriptase inhibitor, AZT, a CXCR4 antagonist, AMD3100 (Sigma Aldrich, St. Louis, MO, USA) were employed as positive control compounds with anti-HIV activity.
(§2) The anti-HIV activity of the synthesized compounds was assessed based on protection against HIV-1 (NL4-3 strain)-induced cytopathogenicity in MT-4 cells by an MTT assay. The cytotoxicity of these compounds was determined based on reduction of the viability of MT-4 cells determined by an MTT assay.

MT-4 cells = experiment: as above; conditions: for cytotoxicity (in words): MT-4 cells MTT assay; for concentration below which no cytotoxicity was exhibited: MT-4 cells; for CC50: 50% reduction of the viability of MT-4 cells
Procedure: as §1, §2

X4-HIV-1 (NL4-3 strain) = experiment: Anti-HIV activity: protection against HIV-1 (NL4-3 strain)-induced cytopathogenicity in MT-4 cells, MTT assay; conditions: for inhibition at 25 µM: Human immunodeficiency virus 1, NL43, MT4, HIV-1 (NL4-3)-induced cytopathogenicity in MT-4 cells, printed in EC50 column; for anti-HIV activity (in words): summary of MTT assay results; for EC50: 50% protection from HIV-1 (NL4-3 strain)-induced cytopathogenicity in MT-4 cells, 5 days, mean or mean ± SD
Procedure: as §1, §2

[2] = tested on: HIV-1 (NL4-3 strain) p24 antigen production; experiment: microbe, parasite or virus in culture
Procedure: as §1
These compounds were also evaluated by a different method, using an enzyme-linked immune sorbent assay (ELISA) based on their inhibitory effect against the viral p24 antigen expression in NL4-3 strain-infected MT-4 cells.

[3] = Human immunodeficiency virus 1, NL43, MT4, 120 h
[4] = Human immunodeficiency virus 1, NL43, MT4, read-out: p24 ELISA EC50, 50% inhibition of viral p24 antigen production in NL4-3 strain-infected MT-4 cells

Row | SMILES | CC50 at 5 days [1] [µM] | inhibition at 25 µM (X4-HIV-1 (NL4-3 strain)) [%] | anti-HIV activity (in words) (X4-HIV-1 (NL4-3 strain)) | EC50 (X4-HIV-1 (NL4-3 strain); [3]) [µM] | also measured
1 | CSCC[C@H](C)OC(=O)[C@@H](N)c1ccccc1-c1coc2ccccc12 [Compound 27] | 34 | 11 | weak anti-HIV activity | – | cytotoxicity (in words) (MT-4 cells): relatively weak cytotoxicity
2 | C[C@@H](CCS(C)(=O)=O)OC(=O)[C@@H](N)c1ccccc1-c1c[nH]c2ccccc12 [Compound 38] | > 50 | 34 | weak anti-HIV activity | – | concentration below which no cytotoxicity was exhibited (MT-4 cells): ≥ 50 µM
3 | C[C@@H](CCSc1ccccc1)OC(=O)[C@@H](N)c1ccccc1-c1c[nH]c2ccccc12 [Compound 36] | 17 | – | – | 11 | –
4 | CSCC[C@H](C)OC(=O)[C@@H](N)c1ccccc1-c1ccc2ccccc2c1 [Compound 24] | 30 ± 2 | 40 ± 4.6 | weak anti-HIV activity | – | cytotoxicity (in words) (MT-4 cells): relatively weak cytotoxicity
5 | CSCC[C@H](C)OC(=O)[C@@H](N)c1ccccc1-c1csc2ccccc12 [Compound 28] | 45 | 31 | weak anti-HIV activity | – | cytotoxicity (in words) (MT-4 cells): relatively weak cytotoxicity
6 | c1cc(CN2CCCNCCNCCCNCC2)ccc1CN1CCCNCCNCCCNCC1 [AMD3100, reference compound] | > 50 | – | – | 0.027 ± 0.0077 | EC50 [2, 4]: 0.029 µM
7 | Cc1cn([C@H]2C[C@H](N=[N+]=[N-])[C@@H](CO)O2)c(=O)[nH]c1=O [AZT, reference compound] | – | – | – | – | CC50 (MT-4 cells): 79 ± 42 µM; EC50 (X4-HIV-1 (NL4-3 strain)): 0.024 ± 0.015 µM; EC50 ([2]; 50% inhibition of viral p24 antigen production in NL4-3 strain-infected MT-4 cells, read-out: p24 ELISA EC50): 0.047 µM
8 | CC(C)SCC[C@H](C)OC(=O)[C@@H](N)c1ccccc1-c1c[nH]c2ccccc12 [Compound 35] | 18 | – | – | 10 | –
9 | CSCC[C@H](C)OC(=O)[C@@H](N)c1ccccc1-c1cccc2ccccc12 [Compound 22] | 33 ± 1.5 | 31 ± 8.5 | weak anti-HIV activity | – | cytotoxicity (in words) (MT-4 cells): relatively weak cytotoxicity
10 | C[C@@H](CCSC(C)(C)C)OC(=O)[C@@H](N)c1ccccc1-c1c[nH]c2ccccc12 [Compound 34] | 17 | – | – | 12 | –
11 | COCC[C@H](C)OC(=O)[C@@H](N)c1ccccc1-c1c[nH]c2ccccc12 [Compound 30] | > 50 | – | weak anti-HIV activity | 26 ± 2.9 | concentration below which no cytotoxicity was exhibited (MT-4 cells): ≥ 50 µM
12 | CSCC[C@H](C)OC(=O)[C@@H](N)c1ccccc1-c1c[nH]c2ccccc12 [MKN-1A (1A)] | 38 | – | significant anti-HIV activity | 8 | EC50 [2, 4]: 14 µM
13 | CSCC[C@@H](C)OC(=O)[C@@H](N)c1ccccc1-c1c[nH]c2ccccc12 [MKN-1B (1B)] | 37 | – | moderate anti-HIV activity | 24 | EC50 [2, 4]: 22 µM
14 | CSCC[C@H](C)OC(=O)[C@@H](N)c1ccccc1-c1c[nH]c2ccccc12 [MKN-1 (1)] | – | – | high anti-HIV activity | – | CC50 (MT-4 cells): 26 ± 8.8 µM; EC50 (X4-HIV-1 (NL4-3 strain)): 4.5 ± 2.3 µM; EC50 ([2]; read-out: p24 ELISA EC50, 50% inhibition of viral p24 antigen production in NL4-3 strain-infected MT-4 cells): 8.5 µM
